{"source": "patent US8048927B2", "about": "(Besins Healthcare Luxembourg, priority 2004, dated 2011)", "key": {"[1]": {"experiment": "tolerance of 4-hydroxy tamoxifen gel in healthy premenopausal women (Example 3)", "experimental": "Each participant applied the gel daily for the duration of two menstrual cycles.\nOn the first day of the following menstruation, treatment, which consisted of daily application of the gel over two menstrual cycles, began. Blood samples were collected 24 hours following the morning application of gel on days 7, 20 and 25 of the first and second cycles. On the last day of administration, day 25 of the second menstrual cycle, serial blood samples were collected prior to application and at 0.5, 1, 1.5, 2, 3, 4, 6, 12, 18, 24, 36, 48, and 72 hours after application of the gel."}, "[2]": {"conditions": "human, in vivo", "protocol": "The patients received [^3H]-labeled drug applied directly on the affected breasts at specified intervals ranging from 12 hours to 7 days before surgery to excise diseased tissue. Breast tissue from three regions: the tumor, tissue immediately surrounding the tumor, and normal tissue, was excised and immediately frozen in liquid nitrogen. Additionally, plasma and urine samples were obtained at scheduled intervals and frozen until analysis."}, "estrone sulphatase": {"molecular_target": "T1, estrone sulphatase (Homo sapiens, UniProt P08842)", "T1 construct": "estrone sulphatase activity in mammary cancer cell lines; endogenous in cells", "T1 sequence (P08842 22-583)": "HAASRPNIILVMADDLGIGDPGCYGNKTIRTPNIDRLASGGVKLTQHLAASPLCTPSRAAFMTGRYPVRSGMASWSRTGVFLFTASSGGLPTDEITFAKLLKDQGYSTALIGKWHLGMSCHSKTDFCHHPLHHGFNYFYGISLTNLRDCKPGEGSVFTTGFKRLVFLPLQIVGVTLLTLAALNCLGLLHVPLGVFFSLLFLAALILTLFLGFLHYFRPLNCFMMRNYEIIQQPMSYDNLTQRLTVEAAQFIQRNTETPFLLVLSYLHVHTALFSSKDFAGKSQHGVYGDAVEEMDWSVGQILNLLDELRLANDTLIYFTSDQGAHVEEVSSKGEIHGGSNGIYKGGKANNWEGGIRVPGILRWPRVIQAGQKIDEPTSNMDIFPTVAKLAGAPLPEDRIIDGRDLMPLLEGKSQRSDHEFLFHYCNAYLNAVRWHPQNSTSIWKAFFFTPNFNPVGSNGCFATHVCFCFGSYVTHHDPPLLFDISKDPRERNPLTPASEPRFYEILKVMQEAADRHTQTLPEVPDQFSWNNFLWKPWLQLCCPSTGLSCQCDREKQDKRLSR", "conditions": "mammary cancer cell lines; cited from earlier work"}, "estrogen receptors": {"system": "estrogen receptors", "conditions": "in vitro; cited from earlier work"}, "rat liver": {"system": "rat liver", "conditions": "in vivo; cited from earlier work"}, "[3]": {"conditions": "in vivo; cited from earlier work"}}, "data": [{"compound": "CCC(=C(c1ccc(O)cc1)c1ccc(OCCN(C)C)cc1)c1ccccc1", "note": "[4-hydroxy tamoxifen, 1-[4-(2-N-dimethylaminoethoxy)phenyl]-1-(4-hydroxyphenyl)-2-phenylbut-1-ene]", "values": [{"measurement": "patients who developed an allergic reaction to the gel", "setting": "[1]; 36 patients", "value": "One"}, {"measurement": "patients who reported facial acne", "setting": "[1]; 36 patients, 5 had a past history of acne", "value": 10}, {"measurement": "biological tolerance", "setting": "[1]; all 36 patients, daily gel over two menstrual cycles", "value": "excellent"}, {"measurement": "effect on FSH, LH, estradiol, or progesterone hormone levels", "setting": "[1]; during the menstrual cycles", "value": "did not affect"}, {"measurement": "echographic examination of the ovaries", "setting": "[1]; end of treatment, all patients", "value": "normal in all patients"}, {"measurement": "laboratory or clinical evidence of systemic effects", "setting": "[1]; topical application", "value": "no detectable laboratory or clinical evidence of systemic effects"}, {"measurement": "metabolism in cytosolic and nuclear fractions of breast tissue", "setting": "[2]", "value": "remained unmetabolized except for limited isomerization from the Z to the E form"}, {"measurement": "retention in the breast", "setting": "[2]", "value": "approximately 4 days"}, {"measurement": "subcellular distribution in breast tissue", "setting": "[2]", "value": "concentrated predominantly in the cytosolic and nuclear fractions of breast tissue"}, {"measurement": "inhibitory effect on estrone sulphatase activity", "setting": "estrone sulphatase", "value": "significant inhibitory effect"}, {"measurement": "potency versus tamoxifen, as measured by binding affinity to estrogen receptors", "setting": "estrogen receptors", "value": "more potency than tamoxifen"}, {"measurement": "rat liver carcinogenicity", "setting": "rat liver", "value": "not"}, {"measurement": "breast tissue concentration by site of application", "setting": "[3]", "value": "concentrated at higher amounts in breast tissue when the gel was applied directly to the breasts"}]}]}
